SMILES strings stand for the structures.

What is called IC50 is the midpoint of a concentration-inhibition curve.

One assay has as its target T1, hSOS1 and hKRASG12C (Homo sapiens, UniProt Q07889).
T1 sequence (Q07889 564-1049): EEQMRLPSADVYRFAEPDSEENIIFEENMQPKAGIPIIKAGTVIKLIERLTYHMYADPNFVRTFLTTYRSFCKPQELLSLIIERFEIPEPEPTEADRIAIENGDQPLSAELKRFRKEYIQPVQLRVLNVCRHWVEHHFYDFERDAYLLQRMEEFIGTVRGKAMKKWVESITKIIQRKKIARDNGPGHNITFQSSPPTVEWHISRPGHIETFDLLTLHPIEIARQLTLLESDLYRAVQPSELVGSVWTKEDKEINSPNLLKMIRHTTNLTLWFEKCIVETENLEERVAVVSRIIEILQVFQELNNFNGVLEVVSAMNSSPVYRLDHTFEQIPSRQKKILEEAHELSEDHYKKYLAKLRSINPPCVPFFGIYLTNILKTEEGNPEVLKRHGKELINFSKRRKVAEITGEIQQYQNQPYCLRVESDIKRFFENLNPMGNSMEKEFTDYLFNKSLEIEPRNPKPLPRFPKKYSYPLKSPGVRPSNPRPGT
Briefly: biochemical.

Assay [1] has as its target T2, hSOS1 mediated nucleotide exchange on hKRASG12C (Homo sapiens, UniProt Q07889).
T2 sequence (Q07889 564-1049): T1 sequence (Q07889 564-1049)
Description: biochemical.
Description: Example-127: Guanine Nucleotide Exchange Assay (GNEA)
GNEA assay was conducted to evaluate the effects of compounds on the nucleotide exchange on hKRASG12C mediated by hSOS1. Inhibitory effect of compounds on HIS-hSOS1, 564-1049aa mediated GTP loading onto GST-hKRASG12C, 1-169aa both expressed and purified in-house was assessed using HTRF detection technology in biochemical assay. Compounds were pre-incubated with hSOS1 working solution containing 10-50 nM hSOS1 and 200 nM EDA-GTP-DY-647P1 (Custom manufactured, Jena Biosciences) per well of a 384 well plate (Perkin Elmer, Cat #6007290) for 10 min at 20° C. in the assay buffer containing 10 mM HEPES, pH 7.4, 150 mM NaCl, 5 mM MgCl2, 1 mM DTT, 0.05% BSA fraction V and 0.0025% Igepal. Reaction was initiated by adding working solution of hKRASG12C containing 25-125 nM hKRASG12C and MAb Anti-GST-Tb (#61GSTTLA, Cisbio BioAssays) in assay buffer. Total assay volume was 15 μL. Reaction was continued for 30-60 min at 20° C. HTRF signal was recorded in PHERAStar microplate reader. Ratio of signal obtained at 665 nm and 620 nm was used to compute the percent inhibition of compound as follows.
Where, Positive control=hSOS1+EDA-GTP-DY-647P1+hKRASG12C+MAb Anti-GST-Tb Negative control=EDA-GTP-DY-647P1+hKRASG12C+MAb Anti-GST-Tb

Another assay concerns pERK in DLD1 cells. Briefly: ERK phosphorylation assay after EGF stimulation. The class given is cell-based. To be noted: Homo sapiens, DLD-1, compound 2 h, 200 ng/ml hEGF 5 minutes, alphascreen pERK, read-out: ERK phosphorylation inhibition IC50. The procedure:
Example-128: ERK Phosphorylation Assay Protocol
Compounds were tested for their ability to inhibit pERK after EGF stimulation in DLD1 cells. Cells were seeded at 0.2 million cells per well in 96 well cell binding tissue culture plate in 100 μL complete media and were allowed to settle overnight (16 to 20 h). On the following day, cells were treated with various concentrations of test compounds for 2 h followed by stimulation with 200 ng/ml hEGF (diluted in PBS) for 5 minutes. Cells were then washed once with PBS and lysed in freshly prepared lysis buffer (provided with alphascreen surefire ERK1/2 p-T202/Y204 assay kit, cat no: TGRESB10K, Perkin Elmer). Lysis was carried out in plate shaker for 10-15 mins. Lysate was transferred to […] white opti-plate (Perkin Elmer) and alphascreen for pERK was carried out as per manufacturer's instructions. Plate was read after 2 h incubation in plate shaker at […] 300 RPM, 25-28° C.
Background: Alpha assays give light when donor and acceptor beads are brought close together.

Description for hSOS1 and hKRASG12C: Interaction assay was conducted to evaluate the ability of the compounds to disrupt the protein-protein interactions between hSOS1 and hKRASG12C. Inhibitory effect of compounds on GST-hSOS1, 564-1049aa expressed and purified in-house and HIS-hKRASG12C (R06-32DH, SignalChem) interaction was assessed using HTRF detection technology in biochemical assay. Compounds were pre-incubated with 10-50 nM working solution of hSOS1 per well of a 384 well plate (Perkin Elmer, Cat #6007290) for 10 min at 20° C. in the assay buffer containing 5 mM HEPES, pH 7.4, 150 mM NaCl, 10 mM EDTA, 1 mM DTT, 0.05% BSA fraction V and 0.0025% Igepal. Reaction was initiated by adding 100-300 nM working solution of hKRASG12C in assay buffer. Total assay volume was 15 μL. Reaction was continued for 30-60 min at 20° C. Then detection solution containing MAb Anti-GST-d2 (#61GSTDLA, Cisbio BioAssays) and MAb Anti-HIS-Tb (#61HISTLA, Cisbio BioAssays), all prepared in HTRF detection buffer (#61DB10RDF, Cisbio BioAssays) was added and further incubated for 30-60 min at 20° C. HTRF signal was recorded in PHERAStar microplate reader. Ratio of signal obtained at 665 nm and 620 nm was used to compute the percent inhibition of compound utilizing the following formula:
Positive control=hSOS1+hKRASG12C+MAb Anti-GST-d2+Mab Anti-HIS-Tb Negative control=hKRASG12C+MAb Anti-GST-d2+MAb Anti-HIS-Tb

Consider `Cc1nc(NC(C)c2cc(N)cc(C(F)F)c2)c2cc(N3CC4(COC4)C3)c3c(c2n1)CCC3` (racemic) [Compound 78, (R/S)—N-(1-(3-amino-5-(difluoromethyl)phenyl)ethyl)-2-methyl-6-(2-oxa-6-azaspiro[3.3]heptan-6-yl)-8,9-dihydro-7H-cyclopenta[h]quinazolin-4-amine], for which the IC50 at hSOS1 and hKRASG12C lay in the range of 1 to 10 nM; in assay [1], 1 to 30 nM; in the assay with pERK in DLD1 cells, 1 to 200 nM.

Turning to `Cc1nc(N[C@H](C)c2cc(N)cc(C(F)(F)F)c2)c2cc(N3CCC(C)(O)C3)c3c(c2n1)CCC3` (single isomer, unassigned) [Compound 55a], the IC50 was 11 to 20 nM against hSOS1 and hKRASG12C; 31 to 70 nM in assay [1]; 1 to 200 nM with pERK in DLD1 cells.

With `Cc1nc(N[C@H](C)c2cccc(C(F)(F)C(C)(C)O)c2F)c2cc(N3CC[C@@](C)(O)C3)c3c(c2n1)CCC3` (single isomer, unassigned) [Compound 61a], the concentration for half-maximal inhibition (IC50) at hSOS1 and hKRASG12C lay in the range of 1 to 10 nM; in assay [1] it was 1 to 30 nM; in the assay on pERK in DLD1 cells, 1 to 200 nM.

Regarding `Cc1nc(N[C@H](C)c2cccc(C(F)(F)CO)c2F)c2cc(N3CC[C@H](O)C3)c3c(c2n1)CCC3` [Compound 22, (S)-1-(4-(((R)-1-(3-(1,1-difluoro-2-hydroxyethyl)-2-fluorophenyl)ethyl)amino)-2-methyl-8,9-dihydro-7H-cyclopenta[h]quinazolin-6-yl)pyrrolidin-3-ol], the IC50 on hSOS1 and hKRASG12C fell in the range of 1 to 10 nM; in assay [1] it was 1 to 30 nM; in the assay with pERK in DLD1 cells it was 1 to 200 nM.

`COCC1(O)CCN(c2cc3c(N[C@H](C)c4cccc(C(F)(F)COC)c4F)nc(C)nc3c3c2CCC3)CC1` [Compound 69, (R)-1-(4-((1-(3-(1,1-difluoro-2-methoxyethyl)-2-fluorophenyl)ethyl)amino)-2-methyl-8,9-dihydro-7H-cyclopenta[h]quinazolin-6-yl)-4-(methoxymethyl) piperidin-4-ol]: the IC50 at hSOS1 and hKRASG12C fell in the range of 1 to 10 nM; in assay [1], 1 to 30 nM; in the assay on pERK in DLD1 cells it was 1 to 200 nM.

As for `Cc1nc(N[C@H](C)c2cccc(C(F)(F)C(C)(C)O)c2F)c2cc(N3C[C@@H]4[C@@H](CO)[C@@H]4C3)c3c(c2n1)CCC3` [Compound 58, 1,1-difluoro-1-(2-fluoro-3-((R)-1-((6-((1R,5S,6R)-6-(hydroxymethyl)-3-azabicyclo[3.1.0]hexan-3-yl)-2-methyl-8,9-dihydro-7H-cyclopenta[h]quinazolin-4-yl)amino)ethyl)phenyl)-2-methylpropan-2-ol], the IC50 was in the range of 1 to 10 nM on hSOS1 and hKRASG12C; 1 to 30 nM in assay [1]; 1 to 200 nM in the assay on pERK in DLD1 cells.

On to `COCC1CCN(c2cc3c(N[C@H](C)c4cccc(C(F)(F)C(C)(C)O)c4F)nc(C)nc3c3c2CCC3)CC1` [Compound 57, (R)-1,1-difluoro-1-(2-fluoro-3-(1-((6-(4-(methoxymethyl)piperidin-1-yl)-2-methyl-8,9-dihydro-7H-cyclopenta[h]quinazolin-4-yl)amino)ethyl)phenyl)-2-methylpropan-2-ol], for which the IC50 fell in the range of 1 to 10 nM at hSOS1 and hKRASG12C; 1 to 30 nM in assay [1]; 1 to 200 nM in the assay on pERK in DLD1 cells.

In the case of `Cc1nc(N[C@H](C)c2cccc(C(F)(F)CO)c2F)c2cc(N3CC[C@@H](O)C3)c3c(c2n1)CCC3` [Compound 30, (R)-1-(4-(((R)-1-(3-(1,1-difluoro-2-hydroxyethyl)-2-fluorophenyl)ethyl)amino)-2-methyl-8,9-dihydro-7H-cyclopenta[h]quinazolin-6-yl)pyrrolidin-3-ol], the IC50 lay in the range of 1 to 10 nM at hSOS1 and hKRASG12C; 1 to 30 nM in assay [1]; 1 to 200 nM in the assay with pERK in DLD1 cells.

Take `Cc1nc(N[C@H](C)c2cc(N)cc(C(F)(F)F)c2)c2cc(NC3COC3)c3c(c2n1)CCC3` [Compound 28, (R)—N^4-(1-(3-amino-5-(trifluoromethyl)phenyl)ethyl)-2-methyl-N^6-(oxetan-3-yl)-8,9-dihydro-7H-cyclopenta[h]quinazoline-4,6-diamine]: the half-maximal inhibitory concentration (IC50) against hSOS1 and hKRASG12C was 1 to 10 nM; in assay [1] it was 31 to 70 nM.

Regarding `Cc1nc(N[C@H](C)c2cccc(C(F)(F)C(C)(C)O)c2F)c2cc(N3CCC(O)(CO)CC3)c3c(c2n1)CCC3` [Compound 85, (R)-1-(4-((1-(3-(1,1-difluoro-2-hydroxy-2-methylpropyl)-2-fluorophenyl)ethyl)amino)-2-methyl-8,9-dihydro-7H-cyclopenta[h]quinazolin-6-yl)-4-(hydroxymethyl) piperidin-4-ol], the IC50 at hSOS1 and hKRASG12C lay in the range of 1 to 10 nM; in assay [1], 1 to 30 nM; in the assay with pERK in DLD1 cells, 1 to 200 nM.

Turning to `COC[C@H]1CN(c2cc3c(N[C@H](C)c4cccc(C(F)(F)CO)c4F)nc(C)nc3c3c2CCC3)CCO1` [Compound 35, 2,2-difluoro-2-(2-fluoro-3-((R)-1-((6-((R)-2-(methoxymethyl)morpholino)-2-methyl-8,9-dihydro-7H-cyclopenta[h]quinazolin-4-yl)amino)ethyl)phenyl)ethan-1-ol], the half-inhibitory concentration (IC50) against hSOS1 and hKRASG12C lay within 1 to 10 nM; in assay [1], 1 to 30 nM; in the assay on pERK in DLD1 cells, 1 to 200 nM.

Turning to `COCC1(O)CCN(c2cc3c(N[C@H](C)c4cccc(C(F)(F)C(C)(C)O)c4F)nc(C)nc3c3c2CCC3)CC1` [Compound 63, (R)-1-(4-((1-(3-(1,1-difluoro-2-hydroxy-2-methylpropyl)-2-fluorophenyl)ethyl)amino)-2-methyl-8,9-dihydro-7H-cyclopenta[h]quinazolin-6-yl)-4-(methoxymethyl)piperidin-4-ol], the IC50 at hSOS1 and hKRASG12C was 1 to 10 nM; in assay [1] it was 1 to 30 nM; with pERK in DLD1 cells, 1 to 200 nM.

Turning to `Cc1nc(N[C@H](C)c2cc(N)cc(C(F)(F)F)c2)c2cc(N3CCC(O)(CO)CC3)c3c(c2n1)CCC3` [Compound 84, (R)-1-(4-((1-(3-amino-5-(trifluoromethyl)phenyl)ethyl)amino)-2-methyl-8,9-dihydro-7H-cyclopenta[h]quinazolin-6-yl)-4-(hydroxymethyl)piperidin-4-ol], the half-maximal inhibitory concentration (IC50) on hSOS1 and hKRASG12C lay within 1 to 10 nM; in assay [1], 1 to 30 nM; in the assay with pERK in DLD1 cells it was 1 to 200 nM.

Turning to `COCC1CN(c2cc3c(N[C@H](C)c4cc(N)cc(C(F)(F)F)c4)nc(C)nc3c3c2CCC3)C1` [Compound 26, (R)—N-(1-(3-amino-5-(trifluoromethyl)phenyl)ethyl)-6-(3-(methoxymethyl)azetidin-1-yl)-2-methyl-8,9-dihydro-7H-cyclopenta[h]quinazolin-4-amine], the IC50 against hSOS1 and hKRASG12C was in the range of 1 to 10 nM; in assay [1], 31 to 70 nM; in the assay on pERK in DLD1 cells, 1 to 200 nM.

Regarding `Cc1cc(N)cc(C(C)Nc2nc(C)nc3c4c(c(N5CC6(COC6)C5)cc23)CCC4)c1` (single isomer, unassigned) [Compound 20, N-(1-(3-amino-5-methylphenyl)ethyl)-2-methyl-6-(2-oxa-6-azaspiro[3.3]heptan-6-yl)-8,9-dihydro-7H-cyclopenta[h]quinazolin-4-amine], the IC50 at hSOS1 and hKRASG12C is 1 to 10 nM; in the assay with pERK in DLD1 cells, 201 to 500 nM.

For `Cc1nc(NC(C)c2cc(N)cc(C(F)F)c2)c2cc(N3CCOCC3)c3c(c2n1)CCC3` (single isomer, unassigned) [Compound 77, (R/S)—N-(1-(3-amino-5-(difluoromethyl)phenyl)ethyl)-2-methyl-6-morpholino-8,9-dihydro-7H-cyclopenta[h]quinazolin-4-amine], the IC50 at hSOS1 and hKRASG12C was 1 to 10 nM; with pERK in DLD1 cells, 1 to 200 nM.

As to `Cc1nc(N[C@H](C)c2cc(N)cc(C(F)(F)F)c2)c2cc(NC3CCOCC3)c3c(c2n1)CCC3` [Compound 21, (R)—N^4-(1-(3-amino-5-(trifluoromethyl)phenyl)ethyl)-2-methyl-N^6-(tetrahydro-2H-pyran-4-yl)-8,9-dihydro-7H-cyclopenta[h]quinazoline-4,6-diamine], the IC50 fell in the range of 11 to 20 nM on hSOS1 and hKRASG12C; 201 to 500 nM in the assay with pERK in DLD1 cells.

On to `Cc1nc(N[C@H](C)c2cc(N)cc(C(F)(F)F)c2)c2cc(N3CC[C@@H](O)C3)c3c(c2n1)CCC3` [Compound 44, (R)-1-(4-(((R)-1-(3-amino-5-(trifluoromethyl)phenyl)ethyl)amino)-2-methyl-8,9-dihydro-7H-cyclopenta[h]quinazolin-6-yl)pyrrolidin-3-ol], for which the IC50 against hSOS1 and hKRASG12C lay within 11 to 20 nM; in the assay with pERK in DLD1 cells, 1 to 200 nM.

In the case of `COC1CCN(c2cc3c(N[C@H](C)c4cc(N)cc(C(F)(F)F)c4)nc(C)nc3c3c2CCC3)CC1` [Compound 1, (R)—N-(1-(3-amino-5-(trifluoromethyl)phenyl)ethyl)-6-(4-methoxypiperidin-1-yl)-2-methyl-8,9-dihydro-7H-cyclopenta[h]quinazolin-4-amine], the IC50 against hSOS1 and hKRASG12C is 11 to 20 nM; with pERK in DLD1 cells it was 1 to 200 nM.

As for `Cc1nc(N[C@H](C)c2cc(N)cc(C(F)(F)F)c2)c2cc(N3CCOCC3)c3c(c2n1)CC(C)O3` (single isomer, unassigned) [Compound 117b], the concentration for half-maximal inhibition (IC50) at hSOS1 and hKRASG12C was 11 to 20 nM; in the assay on pERK in DLD1 cells, 1 to 200 nM.

Source of the values: US12435066B2, “Substituted tricyclic compounds” (LUPIN LIMITED, priority 2019, dated 2025).
